# Assay results published in patent US20110053872A1, “Pharmaceutical Composition For Preventing And Treating Diabetic Nephropathy And The Preparation Method Thereof” (GUANGZHOU CONSUN MEDICINE R & D CO., LTD., priority 2009, published 2011).
# Legend:
# [1] = system: DN model Wistar rats induced by streptozotocin; experiment: STZ DN model rat: serum biochemical indicators; format: in vivo; parameters: AGEs (advanced glycosylation end products): unit not given here
# Protocol: (§1) The DN model Wistar rats were randomly divided into […] with 10 rats each group as indicated: normal glucose group; model group; CAL group (6, 2, 0.7 mg/kg); CAG group (9, 3, 1 mg/kg); CAL+CAG group (CAL:CAG, 2 mg/kg:1 mg/kg, 1 mg/kg:2 mg/kg); Radix Astragali group (5 g/kg); Aminoguanidine group (100 mg/kg).
# (§2) The drugs or sodium chloride were intragastric adminstrated once each day for 14 weeks. After the administration, the total volume urine was collected by metabolic cage. The contents of urinary production, total protein, microalbumin and creatinine were determinated, and the biochemical indicators in blood was determinated using automatic biochemical analyzer. Then the kideny with fog Hahn fixation was reserved for histopathological examination.
# [2] = system: DN model Wistar rats induced by streptozotocin; experiment: STZ DN model rat: urinary production, total protein, microalbumin and creatinine; format: in vivo; settings: for Microalbumin: urine
# Protocol: as §1, §2
# [3] = system: DN model Wistar rats induced by streptozotocin; experiment: STZ DN model rat: pathohistological indicators; format: in vivo; settings: kidney
# Protocol: as §1, §2
# rat mesangial cells [4] = experiment: Content of hydroxyproline in cell culture fluid of rat mesangial cells induced by high glucose; format: cell-based; settings: high glucose (25 mM)
# Protocol: (§3) The treatment was the same as section 2.1 in Experiment 1. The measurement of matrix proliferation was measured by determinating the content of hydroxyproline and the expression of TGFβ-1.
# (§4) The coverslips were pre-placed in the 24-wells plates to stick the cells. The cells were treated with various concentrations of reagents as indicated in Experiment 1. After the cells covered with coverslip, the supernatant was used for the determination of hydroxyproline and the slides of cells were treated with stained with immunohistochemical and PAS staining. The cells cultured without TGFβ-1 antibody were taken as the negative control.
# TGFβ-1 = TGFβ-1 expression induced by high glucose (immunohistochemical staining, FIG. 2); format: cell-based, rat; settings: 25 mM glucose
# Protocol: wherein A: normal glucose group; B: high glucose group (25 mM); C: negative control group; D: CAL group (100 nM); E: CAL group (10 nM); F: CAL group (1 nM); G: CAG group (100 nM); H: CAG group (10 nM); I: CAG group (1 nM); J: Radix Astragali group (RA, 50 mg/ml aqueous extract); K: CAL:CAG group (10 μg/ml:5 μg/ml); L: CAL:CAG group (5 μg/ml:10 μg/ml).
# as §3, §4
# rat mesangial cells [5] = experiment: ECM accrementition induced by high glucose (PAS staining, FIG. 1); format: cell-based; settings: 25 mM glucose
# Protocol: wherein A: normal glucose group; B: high glucose group (25 mM); C: Radix Astragali group (RA, 50 mg/ml aqueous extract); D: CAL group (100 nM); E: CAL group (10 nM); F: CAL group (1 nM); G: CAG group (100 nM); H: CAG group (10 nM); I: CAG group (1 nM); J: CAL:CAG group (10 μg/ml:5 μg/ml). K: CAL:CAG group ([…]:10 μg/ml).
# as §3, §4
# [6] = system: Rat mesangial cell line HBZY21; experiment: AGEs-induced rat mesangial cell proliferation (MTT reduction assay); format: cell-based; settings: 0.25 mg/ml AGEs, 24 h
# Protocol: (§5) The mesangial cells in their exponential growth phase were cultured in 96-well plates at densities of 50000 cm^−2 in DMEM (5 mM glucose) at 37° C. in 5% CO2-95% air for 24 h. After pre-incubation in DMEM supplemented without fetal calf serum for 24 h, cells were then treated with various concentrations of glucose or AGEs for 24 h, 48 h, 72 h, 96 h, respectively.
# (§6) Cells were pretreated with 0.25 mg/mlAGEs, then were treated with various concentrations of reagents as indicated: normal glucose group (NG, 5.5 mM glucose); AGEs group (AGEs, 0.25 mg/mlAGEs); CAL group (CAL, 10, 100 nM); CAG group (CAG, 10, 100 nM); CAL+CAG group (CAL:CAG, 10 μg/ml:5 μg/ml, 5 μg/ml:10 μg/ml); Radix Astragali group (RA, 50 mg/ml aqueous extract). The plates were then incubated for 24 h. Proliferation was examined by MTT reduction assay. Experimental conditions were tested in sextuplicate (six wells of the 96-well plate per experimental condition).
# [7] = system: Rat mesangial cell line HBZY21; experiment: High glucose-induced rat mesangial cell proliferation (MTT reduction assay); format: cell-based; settings: 25 mM glucose, 24 h
# Protocol: as §5
# as §6, with “According to the aboved method, after pre-incubation in DMEM supplemented without fetal calf serum for 24 h, cells” for “Cells”, “25 mM glucose,” for “0.25 mg/mlAGEs,”, “high glucose” for “AGEs”, “(HG, 25 mM glucose);” for “(AGEs, 0.25 mg/mlAGEs);”
# [8] = 100 mg/kg intragastric once each day for 14 weeks
# [9] = 1 mg/kg intragastric once each day for 14 weeks
# [10] = 3 mg/kg intragastric once each day for 14 weeks
# [11] = 9 mg/kg intragastric once each day for 14 weeks
smiles,measurement,setting,value
"N=C(N)NN [Aminoguanidine, reference compound]",AGEs (advanced glycosylation end products),[1]; [8],283 ± 78
same,BUN (Blood urea nitrogen),[1]; [8],6.6 ± 0.8 mmol/L
same,LDL,[1]; [8],2.01 ± 0.58 mmol/L
same,MDA (malonaldehyde),[1]; [8],5.9 ± 1.7 nmol/mL
same,SOD (superoxide dismutase),[1]; [8],516 ± 20 U/ml
same,Scr (serum creatinine),[1]; [8],77.7 ± 20.3 µmol/L
same,triglyceride,[1]; [8],3.35 ± 0.87 mmol/L
same,Urinary production,[2]; [8],36.2 ± 21.8 mL
same,Urine creatinine,[2]; [8],4.0 ± 2.3 mM
same,Urine protein,[2]; [8],43.2 ± 29.9 mg
same,Microalbumin,[2]; [8],1.00 ± 0.27 mg
same,ECM score (PAS %),[3]; [8],26.5 ± 4.3 %
same,Patho-score,[3]; [8],2.1 ± 1.0
same,TGFβ-1 (%),[3]; [8],11.7 ± 5.7 %
"COc1ccc(-c2coc3cc(O[C@@H]4O[C@H](CO)[C@@H](O)[C@H](O)[C@H]4O)ccc3c2=O)cc1O [CAG, 3′-hydroxy-4′-methoxyisoflavone-7-O-β-D-glucopyranoside]",AGEs (advanced glycosylation end products),[1]; [9],288 ± 44
same,BUN (Blood urea nitrogen),[1]; [9],6.9 ± 0.9 mmol/L
same,LDL,[1]; [9],1.94 ± 0.44 mmol/L
same,MDA (malonaldehyde),[1]; [9],7.9 ± 1.6 nmol/mL
same,SOD (superoxide dismutase),[1]; [9],490 ± 23 U/ml
same,Scr (serum creatinine),[1]; [9],89.0 ± 21.1 µmol/L
same,triglyceride,[1]; [9],3.20 ± 0.71 mmol/L
same,AGEs (advanced glycosylation end products),[1]; [10],281 ± 46
same,BUN (Blood urea nitrogen),[1]; [10],6.7 ± 0.8 mmol/L
same,LDL,[1]; [10],1.60 ± 0.43 mmol/L
same,MDA (malonaldehyde),[1]; [10],6.5 ± 1.4 nmol/mL
same,SOD (superoxide dismutase),[1]; [10],502 ± 31 U/ml
same,Scr (serum creatinine),[1]; [10],73.5 ± 22.5 µmol/L
same,triglyceride,[1]; [10],2.66 ± 0.72 mmol/L
same,AGEs (advanced glycosylation end products),[1]; [11],275 ± 68
same,BUN (Blood urea nitrogen),[1]; [11],5.9 ± 1.6 mmol/L
same,LDL,[1]; [11],1.23 ± 0.26 mmol/L
same,MDA (malonaldehyde),[1]; [11],6.5 ± 1.2 nmol/mL
same,SOD (superoxide dismutase),[1]; [11],512 ± 19 U/ml
same,Scr (serum creatinine),[1]; [11],74.2 ± 16.0 µmol/L
same,triglyceride,[1]; [11],2.43 ± 0.70 mmol/L
same,Content of hydroxyproline in cell culture fluid,rat mesangial cells [4]; 10 nM,6.25 ± 1.20 µg/mL
same,Content of hydroxyproline in cell culture fluid,rat mesangial cells [4]; 100 nM,6.00 ± 1.53 µg/mL
same,Urinary production,[2]; [9],58.9 ± 20.5 mL
same,Urine creatinine,[2]; [9],1.3 ± 0.6 mM
same,Urine protein,[2]; [9],67.1 ± 18.4 mg
same,Urinary production,[2]; [10],42.3 ± 12.8 mL
same,Urine creatinine,[2]; [10],2.7 ± 1.1 mM
same,Urine protein,[2]; [10],55.0 ± 13.4 mg
same,Urinary production,[2]; [11],33.9 ± 20.2 mL
same,Urine creatinine,[2]; [11],4.2 ± 1.6 mM
same,Urine protein,[2]; [11],44.2 ± 20.6 mg
same,Microalbumin,[2]; [9],1.52 ± 0.56 mg
same,Microalbumin,[2]; [10],0.90 ± 0.45 mg
same,Microalbumin,[2]; [11],0.93 ± 0.22 mg
same,expression of TGFβ-1 induced by high glucose,TGFβ-1,inhibited
same,ECM accrementition induced by high glucose,rat mesangial cells [5],inhibited
same,ECM score (PAS %),[3]; [9],32.5 ± 4.1%
same,Patho-score,[3]; [9],2.8 ± 0.9
same,TGFβ-1 (%),[3]; [9],20.0 ± 4.3 %
same,ECM score (PAS %),[3]; [10],28.9 ± 5.4 %
same,Patho-score,[3]; [10],1.9 ± 1.1
same,TGFβ-1 (%),[3]; [10],16.2 ± 4.7 %
same,ECM score (PAS %),[3]; [11],26.9 ± 4.5 %
same,Patho-score,[3]; [11],1.7 ± 0.9
same,TGFβ-1 (%),[3]; [11],9.1 ± 2.2 %
same,OD value (λ = 490 nm),[6]; 10 nM,0.34 ± 0.06
same,OD value (λ = 490 nm),[6]; 100 nM,0.33 ± 0.04
same,OD value (λ = 490 nm),[7]; 10 nM,0.35 ± 0.04
same,OD value (λ = 490 nm),[7]; 100 nM,0.33 ± 0.03
